Assay results published in patent publication US20140024123A1, “Aqueous Solution Containing Partial Ras Polypeptide and Method for Screening Inhibitor of Ras Function” (priority 2011, published 2014).

Assays:
[1] = target: T1, human H-Ras polypeptide (amino acid residues 1 to 166) binding to human c-Raf-1 (amino acid residues 51 to 130) (Homo sapiens, UniProt P01112); assay: Biochemical activity verification test: inhibition of Ras-Raf binding (GST-Raf pull-down of GTPγ[35S]-labeled Ras, scintillation counting); conditions: compound at various concentrations in 10% DMSO; FIG. 4
T1 construct: a human H-Ras polypeptide (amino acid residues 1 to 166) was used as Ras; GST (N, cleaved yes); made in house; host or cells: Escherichia coli
T1 sequence (P01112 1-166): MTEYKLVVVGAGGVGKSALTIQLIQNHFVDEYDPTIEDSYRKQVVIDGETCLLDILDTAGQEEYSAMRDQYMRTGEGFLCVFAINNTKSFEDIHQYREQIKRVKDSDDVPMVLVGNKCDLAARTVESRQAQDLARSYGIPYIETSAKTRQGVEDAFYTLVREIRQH
Text: In this experimental example, a human H-Ras polypeptide (amino acid residues 1 to 166) was used as Ras, and a GTP analog (GTPγS (Roche Diagnostics)) was used as GTP. Further, human c-Raf-1 (amino acid residues 51 to 130) was used as Raf, a target protein of Ras.
A fused protein of Raf, a target protein of Ras, and glutathione S-transferase (GST) was expressed in Escherichia coli using a vector for GST-fused protein expression (pGEX-6P-1 vector (GE Healthcare)). The expressed GST-Raf-fused protein was immobilized onto an affinity carrier for purification (glutathione Sepharose 4B: resin (GE Healthcare)).
GTPγ[^35S] (Perkin Elmer), one of the GTP analogs, was added to Ras from which a GST tag was cleaved with a protease for GST-fused protein cleavage (PreScission protease (GE Healthcare)) to produce radiolabeled Ras.
The resin in the reaction liquid was washed, and then a complex of the GST-Raf-fused protein and the radiolabeled Ras was eluted by adding glutathione. A radioactivity of the eluate was subjected to scintillation counting, to thereby measure a binding activity of Ras to Raf, and inhibitory activities on Ras-Raf binding with various compounds were evaluated.

[2] = tested on: culture cell lines having a mutation in an active form of any one of H-Ras, N-Ras, and K-Ras; assay: Cytological activity verification test: anchorage-independent cell growth (soft agar colony formation); type: cell-based; conditions: 0.6% agarose, 37° C., 2 weeks, colonies with diameter of 50 μm or more, relative to compound-free control (100%); FIG. 5
Description: The number of appeared colonies each having a size with a diameter of 50 μm or more was measured. For a medium in which each of the culture cell lines was suspended in a system free of each of the compounds, the number of colonies was similarly measured and used as a control (100%). Each of the compounds was evaluated for its inhibitory activity on colony formation (inhibitory activity on anchorage-independent cell growth) by calculating inhibition ratio for colony formation of the compound administration group relative to the control.

Cc1ccc(NC(=S)NNc2c([N+](=O)[O-])cc(C(F)(F)F)cc2[N+](=O)[O-])cc1Cl [Compound (II)]
inhibitory activity on Ras-Raf binding [1]: found to interact with Ras | inhibitory activity on colony formation (anchorage-independent cell growth) [2]: found to have a colony formation inhibition effect on each cell

O=[N+]([O-])c1ccc(NNC(=S)Nc2ccc(F)cc2)c([N+](=O)[O-])c1 [Compound (III)]
inhibitory activity on Ras-Raf binding [1]: found to interact with Ras | inhibitory activity on colony formation (anchorage-independent cell growth) [2]: found to have a colony formation inhibition effect on each cell

O=[N+]([O-])c1cc(C(F)(F)F)cc([N+](=O)[O-])c1NNC(=S)Nc1ccc(F)cc1 [Compound (IV)]
inhibitory activity on Ras-Raf binding [1]: found to interact with Ras | inhibitory activity on colony formation (anchorage-independent cell growth) [2]: found to have a colony formation inhibition effect on each cell
